Reference: patent US20080300298A1, “Honokiol Derivates For the Treatment of Proliferative Disorders” (priority 2005, published 2008)

Columns and labels:
HIV-1 = experiment: HIV assay in PBM cells (RT activity); assay type: cell-based; details: HIV-1 in human PBM cells
Procedure: The antiviral activity of the synthesized compounds and honokiol were evaluated against HIV-1 in human peripheral blood mononuclear (PBM) cells (Table 4).
Human peripheral blood mononuclear (PBM) cells (which can be obtained from Atlanta Red Cross) can be isolated by Ficoll-Hypaque discontinuous gradient centrifugation from healthy seronegative donors. Cells can be stimulated with phytohemagglutinin A (Difco, Sparks, Md.) for 2-3 days prior to use. HIV-1, such as HIV-1LAI can be obtained from the Centers for Disease Control and Prevention (Atlanta, Ga.), and can be used as the standard reference virus for the antiviral assays. The molecular infectious clones HIV-1xxBru and HIV-1M184Vpin can be obtained from Dr. John Mellors (University of Pittsburgh). Infections can be done in bulk for one hour, either with 100 TCID50/1×10^7 cells for a flask (T25) assay or with 200 TCID50/6×10^5 cells/well for a 24 well plate assay. Cells can be added to a plate or flask containing a ten-fold serial dilution of the test compound. Assay medium can be RPMI-1640 supplemented with heat inactivated 16% fetal bovine serum, 1.6 mM L-glutamine, 80 IU/ml penicillin, 80 μg/ml streptomycin, 0.0008% DEAE-Dextran, 0.045% sodium bicarbonate, and 26 IU/ml recombinant interleukin-2 (Chiron Corp, Emeryville, Calif.). AZT can be used as a positive control for the assay. Untreated and uninfected PBM cells can be grown in parallel at equivalent cell concentrations as controls. The cell cultures can be maintained in a humidified 5% CO2-air at 37° C. for 5 days and supernatants can be collected for reverse transcriptase (RT) activity.
Supernatants can be centrifuged at 12,000 rpm for 2 hours to pellet the virus. The pellet can be solubilized with vortexing in 100 μl virus solubilization buffer (VSB) containing 0.5% Triton X-100, 0.8 M NaCl, 0.5 mM phenylmethylsulfonyl fluoride, 20% glycerol, and 0.05 M Tris, pH 7.8. Ten μL of each sample can be added to 75 μL RT reaction mixture (0.06 M Tris, pH 7.8, 0.012 M MgCl2, 0.006 M dithiothreitol, 0.006 mg/ml poly (rA)n, oligo (dT)12-18, 96 μg/ml dATP, and 1 μM of 0.08 mCi/ml ^3H-thymidine triphosphate (Moravek Biochemicals, Brea, Calif.) and can be incubated at 37° C. for 2 hours. The reaction can be stopped by the addition of 100 μL 10% trichloroacetic acid containing 0.05% sodium pyrophosphate. The acid insoluble product can be harvested onto filter paper using a Packard Harvester (Meriden, Conn.), and the RT activity can be read on a Packard Direct Beta Counter (Meriden, Conn.). The RT results can be expressed in counts per minute (CPM) per milliliter. The antiviral 50% effective concentration (EC50) and 90% effective concentration (EC90) can be determined from the concentration-response curve using the median effect method (Belen'kii, S. M.; Schinazi, R. S. Multiple drug effect analysis with confidence interval. Antiviral. Res. 1994, 25, 1-11).

PBM cells = experiment: cytotoxicity assay (MTT); assay type: cell-based, human
Procedure: (§1) The cytotoxicity of the honokiol and analogues thereof were assessed in human PBM, CEM and Vero cells (Table 4). Compounds can be evaluated for their potential toxic effects on uninfected human PBM cells, in CEM (T-lymphoblastoid cell line obtained from American Type Culture Collection, Rockville, Md.) and Vero (African green monkey kidney) cells. PBM cells can be obtained from whole blood of healthy seronegative donors (HIV-1) by single-step Ficoll-Hypaque discontinous gradient centrifugation. […] All of the cells can be plated in 96-well cell culture plates containing ten-fold serial dilutions of the test drug. […] At the end of incubation, MTT tetrazolium dye solution (Cell titer 96®, Promega, Madison, Wis.) can be added to each well and incubated overnight. The reaction can be stopped with stop solubilization solution (Promega, Madison, Wis.). […] The plates can be read at a wavelength of 570 nm using an ELISA plate reader (Bio-tek instruments, Inc., Winooski, Vt., Model #EL 312e). The 50% inhibition concentration (IC50) can be determined from the concentration-response curve using the median effect method.

[1] = tested on: CEM (T-lymphoblastoid cell line); experiment: cytotoxicity assay (MTT); assay type: cell-based
Procedure: as §1

Cc1cn([C@H]2C[C@H](N=[N+]=[N-])[C@@H](CO)O2)c(=O)[nH]c1=O [AZT, reference compound]
EC50 (HIV-1; read-out: Activity anti-VIH-1 on PBM cells EC50): 14 nM | EC90 (HIV-1; read-out: Activity anti-VIH-1 on PBM cells EC90): 49 nM | EC50 (PBM cells): > 100000 nM | EC50 [1]: 14300 nM
